Assay results reported in patent US20230355674A1, “DONOR T-CELLS WITH KILL SWITCH” (CSL Behring LLC, priority 2020, published 2023).
Entries after “also recorded” stand apart in the source; their conditions may differ.

What was measured:
[1] = tested on: HPRT1 gene; test: ICE scoring (indel, knockout score) of gRNA editing in CEM cells; type: cell-based, human
Source text: The top candidate guide RNAs from Example 21 were screen in Jurkat cell lines (n=1) and validated in CEM cell lines (n=2). For instance, Jurkat cells were electroporated with a ribonucleoprotein (RNP) complex containing guide RNA (e.g. an RNP including a guide RNA having any one of SEQ ID NOS: 40-49) together with the Cas9 and tracrRNA. The methodology and analysis was the same for both Jurkat cell lines and CEM cell lines (see also, FIG. 37). Following electroporation, cell viability was measured at different concentrations of 6-TG (see FIG. 36).
(§1) Indel Percentage—The editing efficiency (percentage of the pool with non-wild type sequence) as determined by comparing the edited trace to the control trace. In the ICE algorithm, potential editing outcomes are proposed and fitted to the observed data using linear regression.
(§2) Knockout Score—Represents the proportion of cells that have either a frameshift or 21+bp indel. This score is a useful measure for those who are interested in understanding how many of the contributing indels are likely to result in a functional Knockout (KO) of the targeted gene.
(§3) CEM T cell leukemia cells were electroporated (1600V, 10 ms pulse width, 3 pulses by using the Neon Transfection system) with ribonucleoprotein (RNP) complexes containing guide RNA (see Example 21) designed in-house and obtained from Integrated DNA Technologies (IDT), together with Cas9 and tracrRNA. Cells confirmed to be transfected with the gRNA via the use of the tracr RNA (24 hours post electroporation) were purified using fluorescence activated cells sorting (FACS) prior to culture for a further 72 hours, followed by assessment of cell survival when challenged with increasing concentrations of 6-thioguanine (6-TG) compared to wild type (unmodified) CEM cells.

[2] = tested on: HPRT1 gene; test: ICE scoring (indel, knockout score) of gRNA editing in primary T cells; type: cell-based; details: primary human T cells
Source text: as §1, §2
FIG. 44 illustrates a method of modifying primary T-cells in accordance with one embodiment of the present disclosure. FIGS. 45A-45C illustrate 6-TG dose responses seven days following the modification of the primary T-cells in accordance with the modification methods described herein. In particular, FIGS. 45A and 45B illustrate the targeting of Exon 3 (guide RNA 13) and Exon 8 (guide RNA 21). The references “#9” and “#10” denote T-cell number and UT control (electroporated without RNP). […]
(§4) Peripheral blood mononuclear cells (PBMC) were isolated from Australian Red Cross Blood donor samples (n=2) via density centrifugation. […] By day 7, the original mixed PBMC population was determined to be primarily CD3+ T cells (flow cytometry; data not shown).

[3] = tested on: CEM T cell leukemia cells; test: 6-TG dose response of gRNA modified CEM cells 72 hours after electroporation; type: cell-based; details: 72 hours culture, 6-TG tested up to 40 μM, vs unmodified
Protocol: as §3

[4] = tested on: HPRT protein; test: Western blot of HPRT protein in gRNA modified CEM cells; type: cell-based, human
Protocol: as §3
Unmodified and modified CEM cells were also used for isolation of protein and detection of the HPRT protein using Western blot (FIG. 39, top panel). […] Actin protein detection (FIG. 39, bottom panel) was used as a protein loading control.
CEM T cell leukemia cells were electroporated (1600V, 10 ms pulse width, 3 pulses by using the Neon Transfection system) with ribonucleoprotein (RNP) complexes containing guide RNA (gRNA; legend) designed in-house and obtained from Integrated DNA Technologies (IDT), together with Cas9 and tracrRNA. Cells confirmed to be transfected with the gRNA via the use of the tracr RNA (24 hours post electroporation) were purified using fluorescence activated cells sorting (FACS) prior to culture for 10 days in the presence of 10 uM 6-TG, replenished with fresh 6-TG every 48-72 hours.
Following the selection period, protein was extracted from each cell and used for western blot-based detection of the HPRT protein. Detection of beta-actin was used as a protein loading control (Actin Antibody (ACTBD11B7): sc-81178. Santa Cruz).

[5] = tested on: CEM T cell leukemia cells; test: 6-TG selection and 6-TG challenge of gRNA modified CEM cells (cell viability); type: cell-based; details: CEM, 10 μM 6-TG for 1 week, vs wild-type
Protocol: Cells confirmed to be transfected with the gRNA via the use of the tracr RNA (24 hours post electroporation) were purified using fluorescence activated cells sorting (FACS) prior to culture in 10 μM 6-TG for 1 week replenished with fresh 6-TG every 48-72 hours.
After 10 days in the presence of 10 uM 6-TG, replenished with fresh 6-TG every 48-72 hours, each cell line was challenged with increasing concentrations of 6-thioguanine (6-TG) and cell viability was compared to wild type (unmodified) CEM cells (see FIG. 40B).

[6] = tested on: primary human T cells; test: 6-TG resistance of gRNA modified primary human T cells (viability); type: cell-based; details: donors #9 and #10, 1 uM 6-TG, day 8 and day 13, vs unmodified
Source text: FIG. 44 illustrates a method of modifying primary T-cells in accordance with one embodiment of the present disclosure. FIGS. 45A-45C illustrate 6-TG dose responses seven days following the modification of the primary T-cells in accordance with the modification methods described herein. In particular, FIGS. 45A and 45B illustrate the targeting of Exon 3 (guide RNA 13) and Exon 8 (guide RNA 21). The references “#9” and “#10” denote T-cell number and UT control (electroporated without RNP). FIG. 45C illustrates unmodified cells from donor #9 and donor #10 tested with increasing concentrations of 6-TG (day 4). It was observed that the […] primary T-cells were very sensitive to low doses of 6-TG. ICE Scores are shown below.
as §4
The cells were then cultured for about 7 and about 12 days in the presence of 1 uM 6-TG, with 6-TG replenished every about 2 to about 3 days. At each of these time points, the cells were assessed for the proportion of viable cells compared to untreated (UT) controls.

[7] = tested on: HPRT protein; test: Western blot of HPRT protein in gRNA modified primary T cells; type: cell-based, human; details: 72 hours after electroporation
[8] = tested on: primary human T cells; test: MTX dose response in 6-TG selected primary human T cells; type: cell-based; details: primary human T cells after 12 days 1 μM 6-TG, MTX dose range 2 days, thymidine 16 μM
Protocol: Primary human T cells modified using guide RNAs targeting the HPRT1 gene and subsequently placed under selection pressure for 12 days with 1 μM 6-TG, with 6-TG replenished every 2 to 3 days, were subjected to a dose range of MTX in the presence of thymidine 16 μM for 2 days and assessed for cell viability.

[9] = tested on: K562 cells; test: Negative selection with MTX, transduced or transfected K562 cells; type: cell-based, human; details: 0.3 μM of MTX
Protocol: Transduced or transfected K562 cells (such as those from Example 1) were cultured with or without MTX from day 0 to day 14. The medium was refreshed every 3 to 4 days. GFP was analyzed on a flow machine and the InDel % was analyzed by T7E1 assay. […] On the other hand, the population of cells was steady without MTX. FIG. 14B illustrates that the transfected K562 cells were eliminated under treatment with 0.3 μM of MTX at a faster pace as compared with the HPRT-knockdown population.

[10] = tested on: CEM cells; test: Negative selection with MTX or MPA, transduced or transfected CEM cells; type: cell-based; details: 0.3 μM of MTX, day 0 to day 14
Protocol: Transduced or transfected CEM cells (such as those from Example 1) were cultured with or without MTX from day 0 to day 14. The medium was refreshed every 3 to 4 days. GFP was analyzed on flow machine and InDel % was analyzed by T7E1 assay.

[11] = MTX dose response in 6-TG selected CEM cells; type: cell-based; details: human, wild type CEM T cell leukemia cells, 0.5 μM MTX, thymidine 16 μM, read-out: viable wild type (WT) cells
Protocol: CEM T cell leukemia cells modified by 8 guide RNAs targeting the HPRT1 gene were cultured for 1 week in the presence of 10 μM 6-TG, replenished with fresh 6-TG every 48-72 hours. Following the selection period and confirmation of HPRT protein reduction, the CEM cells were tested for their sensitivity to a dose range of […], methotrexate (MTX) for 3 days in the presence of thymidine 16 μM (T1895 Sigma).

| Compound | editing (ICE scoring), in words [1] | knockout efficiency (ICE scoring) [2] | resistance to 6-TG challenge (cell survival) [3] | HPRT protein (Western blot) ([4]; 72 hours post-electroporation, no 6-TG selection, listed as guide 21) | HPRT protein (Western blot) ([4]; after 10 days of 6-TG selection (10 uM)) | cell viability under 6-TG selection [5] | proportion of viable cells under 6-TG [6] | HPRT protein (Western blot) [7] | sensitivity to MTX compared to wild-type non-modified cells (UT) [8] | GFP population of transduced (HPRT knockdown) K562 cells ([9]; day 0 to day 14) | transfected (HPRT knockout) K562 cells ([9]; day 0 to day 14, compared with HPRT-knockdown population) | HPRT knockout population of CEM cells [10] | GFP population of transduced (HPRT knockdown) cells ([10]; CEM cells) | viability at 3 days, 0.5 µM [11] |
| --- | --- | --- | --- | --- | --- | --- | --- | --- | --- | --- | --- | --- | --- | --- |
| gRNA 21: sgRNA guide and PAM TATCCTACAACAAACTTGTCTGG, HPRT 1 target Exon 8 (listed as DNA, chemistry not given here) | efficient editing | about 1% | intermediate resistance | reduced compared to wildtype; also recorded: detectable levels of HPRT protein | limited to no detectable levels of HPRT | more variable viability | increased viability | residual HPRT protein was observed | increased sensitivity to MTX |  |  |  |  |  |
| CN(Cc1cnc2nc(N)nc(N)c2n1)c1ccc(C(=O)N[C@@H](CCC(=O)O)C(=O)O)cc1 [MTX, methotrexate] |  |  |  |  |  |  |  |  |  | decreased | eliminated | eliminated at a faster pace | decreased | 60% |
